Experiment [1] deals with mosquito. To be noted: mosquito repellent; cited from earlier work.
The subject of experiment [2] is Drosophila melanogaster. Put plainly: Habituation assay (prior exposure, then olfactory and gustatory screens). Format: in vivo. As for the experimental part: In the gustatory assay, the consumption of sugar (from a solution in a gel) treated at varying concentrations of the present repellent compounds was compared to the consumption of control-treated sugar. For the habituation assay, flies were tested over repeated exposures to the present repellent compounds to measure changes in behavioral preference for the compounds.
Flies were continuously monitored throughout their lifetime. In this assay, 3- to 5-day-old flies (70 male and 70 female) were selected and transferred to an empty fly food container 320 (FIG. 9). The polystyrene foam cap 310 was treated with 50 μL of 25% by weight of the present aromatic amide repellent in DMSO. A thin porous material 330 was placed around the treated cap 310, with a gap between the cap 310 and the material 330 so that the flies cannot touch the treated cap 310, but can only smell it. […] After the 20-hour period, the flies were screened in the olfactory assay and gustatory assays above. In the olfactory assay, the number of flies in the trap, the number of flies outside the trap, and the number of flies that died outside the trap were counted as described herein, and in the gustatory assay, the color of the flies' abdomens were determined and counted, as described herein.
The different assays assigned results as follows. For the single-choice olfactory assay, the numbers of flies were counted according to (1) those that entered the trap, (2) those that stayed outside the trap and lived, and (3) those that died outside the trap. For the two-choice olfactory assay, the numbers of flies were counted according to (1) those that entered the control trap, (2) those that entered the trap containing the repellent, (3) those that stayed outside of both traps and lived, and (4) those that died outside the traps. For the gustatory assay, the numbers of flies were counted according to those that had (1) a red-colored abdomen, (2) a blue-colored abdomen, (3) a purple abdomen, and (4) no added color to their abdomen. A nonparametric Mann-Whitney U test was used to compare the statistical differences between assays using DEET and the same assays using one of the present repellents for all trials.

The subject of experiment [3] is odorant receptor CquiOR136. To be noted: southern house mosquito; cited from earlier work.

As for `CCN(CC)C(=O)c1cccc(C)c1` [DEET, N,N-diethyl-m-toluamide, reference compound], in experiment [1], the duration of efficacy entry is “five”. Besides, the “habituation of fruit flies, overall (olfactory and gustatory assays)” value in experiment [2] (post-exposure) is given as “demonstrated habituation in at least one assay”. For the same molecule, the “repellency after prior exposure, gustatory assay” value in experiment [2] (prior exposure 25% by weight, gustatory screen at 5 mM) is on record as “significantly less repellency”. Also, the “repellency after prior exposure, 2-choice olfactory assay” value in experiment [2] (prior exposure to 25% by weight repellent (18-hour period as printed elsewhere in the source)) is given as “statistically similar”. In addition, the “affinity for odorant receptor” value in experiment [3] is recorded as “showing an affinity”.

(Values after patent publication US12108762B2, “Methods of controlling crop pests using aromatic amide insect repellents, methods of making aromatic amide insect repellents, and novel aromatic amide insect repellents” (priority 2020, dated 2024).)
